# Measured values as given in the supplement of paper PMC10307832.
# Legend:
# Test in all cases: relative viability (nuclei count vs DMSO), 5 days (fraction); higher = more cells survive
# A-427 = test system: A-427
# How it was run: (§1)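 Lung cancer cell lines, seeded in 1536-well plates, were treated the following day by pin tool with a single drug or with five library-drug doses (not always all listed) in √10 steps on top of a fixed anchor-drug dose. Cells were fixed and nuclei stained in one step after 5 days, and nuclei were counted. Relative viability is the nuclei count for treated wells divided by that for vehicle wells, reported as medians of duplicate plates.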
# CAL-12T = test system: CAL-12T
# How it was run: as §1
# COR-L 105 = test system: COR-L 105
# How it was run: as §1
# EPLC-272H = test system: EPLC-272H
# How it was run: as §1
# HCC-15 = test system: HCC-15
# How it was run: as §1
# HCC-44 = test system: HCC-44
# How it was run: as §1
# LC-2-ad = test system: LC-2-ad
# How it was run: as §1
# LCLC-97TM1 = test system: LCLC-97TM1
# How it was run: as §1
# NCI-H1395 = test system: NCI-H1395
# How it was run: as §1
# NCI-H1563 = test system: NCI-H1563
# How it was run: as §1
# NCI-H1734 = test system: NCI-H1734
# How it was run: as §1
# NCI-H1792 = test system: NCI-H1792
# How it was run: as §1
# NCI-H1915 = test system: NCI-H1915
# How it was run: as §1
# NCI-H1975 = test system: NCI-H1975
# How it was run: as §1
# NCI-H2023 = test system: NCI-H2023
# How it was run: as §1
# NCI-H2347 = test system: NCI-H2347
# How it was run: as §1
# NCI-H2405 = test system: NCI-H2405
# How it was run: as §1
# NCI-H520 = test system: NCI-H520
# How it was run: as §1
# NCI-H838 = test system: NCI-H838
# How it was run: as §1
# SW 1573 = test system: SW 1573
# How it was run: as §1
# UMC-11 = test system: UMC-11
# How it was run: as §1
compound,measurement,setting,value
CCNC(=O)c1noc(-c2cc(C(C)C)c(O)cc2O)c1-c1ccc(CN2CCOCC2)cc1 [Luminespib] + Cc1nc(NC(=O)N2CCC[C@H]2C(N)=O)sc1-c1ccnc(C(C)(C)C(F)(F)F)c1 [Alpelisib] (partner 2 µM),relative viability,A-427; first compound 0.002 µM,1.02
same,relative viability,A-427; first compound 0.006325 µM,1.07
same,relative viability,A-427; first compound 0.02 µM,0.697
same,relative viability,A-427; first compound 0.06325 µM,1.08
same,relative viability,A-427; first compound 0.2 µM,1.09
same,relative viability,CAL-12T; first compound 0.002 µM,1.21
same,relative viability,CAL-12T; first compound 0.006325 µM,1.25
same,relative viability,CAL-12T; first compound 0.02 µM,1.02
same,relative viability,CAL-12T; first compound 0.06325 µM,0.192
same,relative viability,CAL-12T; first compound 0.2 µM,0.0844
same,relative viability,COR-L 105; first compound 0.002 µM,1.04
same,relative viability,COR-L 105; first compound 0.006325 µM,0.96
same,relative viability,COR-L 105; first compound 0.02 µM,1.35
same,relative viability,COR-L 105; first compound 0.06325 µM,0.343
same,relative viability,COR-L 105; first compound 0.2 µM,0.181
same,relative viability,EPLC-272H; first compound 0.006325 µM,0.811
same,relative viability,EPLC-272H; first compound 0.02 µM,0.674
same,relative viability,EPLC-272H; first compound 0.06325 µM,0.879
same,relative viability,EPLC-272H; first compound 0.2 µM,0.93
same,relative viability,HCC-15; first compound 0.002 µM,0.964
same,relative viability,HCC-15; first compound 0.006325 µM,0.852
same,relative viability,HCC-15; first compound 0.02 µM,0.773
same,relative viability,HCC-15; first compound 0.06325 µM,0.54
same,relative viability,HCC-15; first compound 0.2 µM,0.492
same,relative viability,HCC-44; first compound 0.002 µM,0.82
same,relative viability,HCC-44; first compound 0.006325 µM,0.886
same,relative viability,HCC-44; first compound 0.02 µM,0.851
same,relative viability,HCC-44; first compound 0.06325 µM,0.152
same,relative viability,HCC-44; first compound 0.2 µM,0.154
same,relative viability,LC-2-ad; first compound 0.002 µM,0.881
same,relative viability,LC-2-ad; first compound 0.006325 µM,0.821
same,relative viability,LC-2-ad; first compound 0.02 µM,0.858
same,relative viability,LC-2-ad; first compound 0.06325 µM,0.123
same,relative viability,LC-2-ad; first compound 0.2 µM,0.092
same,relative viability,LCLC-97TM1; first compound 0.002 µM,0.286
same,relative viability,LCLC-97TM1; first compound 0.006325 µM,0.254
same,relative viability,LCLC-97TM1; first compound 0.02 µM,0.19
same,relative viability,LCLC-97TM1; first compound 0.06325 µM,0.323
same,relative viability,LCLC-97TM1; first compound 0.2 µM,0.194
same,relative viability,NCI-H1395; first compound 0.002 µM,1.37
same,relative viability,NCI-H1395; first compound 0.006325 µM,1.03
same,relative viability,NCI-H1395; first compound 0.02 µM,1.17
same,relative viability,NCI-H1395; first compound 0.06325 µM,0.469
same,relative viability,NCI-H1395; first compound 0.2 µM,0.349
same,relative viability,NCI-H1563; first compound 0.002 µM,0.877
same,relative viability,NCI-H1563; first compound 0.006325 µM,0.942
same,relative viability,NCI-H1563; first compound 0.02 µM,0.95
same,relative viability,NCI-H1563; first compound 0.06325 µM,0.495
same,relative viability,NCI-H1563; first compound 0.2 µM,0.537
same,relative viability,NCI-H1734; first compound 0.002 µM,0.708
same,relative viability,NCI-H1734; first compound 0.006325 µM,0.736
same,relative viability,NCI-H1734; first compound 0.02 µM,0.541
same,relative viability,NCI-H1734; first compound 0.06325 µM,0.213
same,relative viability,NCI-H1734; first compound 0.2 µM,0.158
same,relative viability,NCI-H1792; first compound 0.002 µM,0.595
same,relative viability,NCI-H1792; first compound 0.006325 µM,0.621
same,relative viability,NCI-H1792; first compound 0.02 µM,0.355
same,relative viability,NCI-H1792; first compound 0.06325 µM,0.308
same,relative viability,NCI-H1792; first compound 0.2 µM,0.1
same,relative viability,NCI-H1915; first compound 0.002 µM,1.09
same,relative viability,NCI-H1915; first compound 0.006325 µM,0.987
same,relative viability,NCI-H1915; first compound 0.02 µM,0.862
same,relative viability,NCI-H1915; first compound 0.06325 µM,1.08
same,relative viability,NCI-H1915; first compound 0.2 µM,1.04
same,relative viability,NCI-H1975; first compound 0.002 µM,0.667
same,relative viability,NCI-H1975; first compound 0.006325 µM,0.512
same,relative viability,NCI-H1975; first compound 0.02 µM,0.233
same,relative viability,NCI-H1975; first compound 0.06325 µM,0.137
same,relative viability,NCI-H1975; first compound 0.2 µM,0.126
same,relative viability,NCI-H2023; first compound 0.002 µM,0.59
same,relative viability,NCI-H2023; first compound 0.006325 µM,0.609
same,relative viability,NCI-H2023; first compound 0.02 µM,0.529
same,relative viability,NCI-H2023; first compound 0.06325 µM,0.255
same,relative viability,NCI-H2023; first compound 0.2 µM,0.0672
same,relative viability,NCI-H2347; first compound 0.002 µM,1.14
same,relative viability,NCI-H2347; first compound 0.02 µM,0.779
same,relative viability,NCI-H2347; first compound 0.06325 µM,0.936
same,relative viability,NCI-H2347; first compound 0.2 µM,0.382
same,relative viability,NCI-H2405; first compound 0.002 µM,0.968
same,relative viability,NCI-H2405; first compound 0.006325 µM,0.513
same,relative viability,NCI-H2405; first compound 0.02 µM,0.483
same,relative viability,NCI-H2405; first compound 0.06325 µM,0.19
same,relative viability,NCI-H2405; first compound 0.2 µM,0.15
same,relative viability,NCI-H520; first compound 0.002 µM,0.916
same,relative viability,NCI-H520; first compound 0.006325 µM,0.875
same,relative viability,NCI-H520; first compound 0.02 µM,1.01
same,relative viability,NCI-H520; first compound 0.06325 µM,0.131
same,relative viability,NCI-H520; first compound 0.2 µM,0.15
same,relative viability,NCI-H838; first compound 0.002 µM,1.03
same,relative viability,NCI-H838; first compound 0.006325 µM,0.927
same,relative viability,NCI-H838; first compound 0.02 µM,0.589
same,relative viability,NCI-H838; first compound 0.06325 µM,0.168
same,relative viability,NCI-H838; first compound 0.2 µM,0.153
same,relative viability,SW 1573; first compound 0.002 µM,0.714
same,relative viability,SW 1573; first compound 0.006325 µM,0.728
same,relative viability,SW 1573; first compound 0.02 µM,0.501
same,relative viability,SW 1573; first compound 0.06325 µM,0.165
same,relative viability,SW 1573; first compound 0.2 µM,0.113
same,relative viability,UMC-11; first compound 0.002 µM,0.943
same,relative viability,UMC-11; first compound 0.006325 µM,0.907
same,relative viability,UMC-11; first compound 0.02 µM,0.653
same,relative viability,UMC-11; first compound 0.06325 µM,0.342
same,relative viability,UMC-11; first compound 0.2 µM,0.129
